Literature values as cited in patent publication US20230321114A1, “METHODS OF TREATING AGE-RELATED COGNITIVE DECLINE” (Woolsey Pharmaceuticals, Inc., priority 2020, published 2023).

Legend:
memory in aging rats = conditions: eighteen-month old rats, 0.1875 or 0.3750 mg per day, single daily injection
[1] = in vivo, metabolite

O=S(=O)(c1cccc2c(O)nccc12)N1CCCNCC1 [hydroxyfasudil]
spatial reference memory (memory in aging rats; Morris Water Maze): not in spatial reference memory | working memory (memory in aging rats; Morris Water Maze (radial maze)): improvements in working memory | half-life [1]: about 8 hours
